BigSolDB 2.1

CCCCCCCCCCCCCCCCCCCCCC(=O)OCCO
Details | solubility (mole fraction)
in 1,1,1-trichloroethane, 287.55 K | 0.0101
in 1,1,1-trichloroethane, 290.15 K | 0.0146
in 1,1,1-trichloroethane, 293.65 K | 0.0202
in 1,1,1-trichloroethane, 296.95 K | 0.0313
in 1,1,1-trichloroethane, 299.45 K | 0.043
in 1,1,1-trichloroethane, 302.35 K | 0.0571
in 1,1,1-trichloroethane, 304.35 K | 0.0718
in 1,1,1-trichloroethane, 305.75 K | 0.0958
in 1,1,1-trichloroethane, 308.95 K | 0.127
in 1,1,1-trichloroethane, 311.75 K | 0.161
in 1,1,1-trichloroethane, 318.15 K | 0.259
in cyclohexane, 295.95 K | 0.0024
in cyclohexane, 300.05 K | 0.0037
in cyclohexane, 304.75 K | 0.0102
in cyclohexane, 307.15 K | 0.0204
in cyclohexane, 308.95 K | 0.041
in cyclohexane, 311.05 K | 0.0766
in cyclohexane, 312.65 K | 0.108
in ethanol, 296.35 K | 0.0001
in ethanol, 302.05 K | 0.0002
in ethanol, 305.35 K | 0.0003
in ethanol, 311.65 K | 0.0007
in ethanol, 313.05 K | 0.0009
in ethanol, 322.45 K | 0.0131
in isobutanol, 295.75 K | 0.0001
in isobutanol, 300.35 K | 0.0004
in isobutanol, 304.45 K | 0.0018
in isobutanol, 304.55 K | 0.0016
in isobutanol, 308.45 K | 0.003
in isobutanol, 311.55 K | 0.0082
in isopropanol, 305.15 K | 0.0003
in isopropanol, 306.65 K | 0.0006
in isopropanol, 313.15 K | 0.0008
in isopropanol, 315.65 K | 0.0015
in isopropanol, 319.65 K | 0.0033
in isopropanol, 321.65 K | 0.0058
in isopropanol, 325.65 K | 0.0069
in isopropanol, 326.65 K | 0.0241
in n-butanol, 295.85 K | 0.0004
in n-butanol, 299.75 K | 0.0006
in n-butanol, 304.25 K | 0.001
in n-butanol, 307.25 K | 0.0018
in n-butanol, 309.25 K | 0.0036
in n-propanol, 296.55 K | 0.0002
in n-propanol, 299.15 K | 0.0003
in n-propanol, 302.85 K | 0.0007
in n-propanol, 303.15 K | 0.0008
in n-propanol, 306.05 K | 0.0016
in n-propanol, 308.85 K | 0.0033
in tetrachloroethylene, 297.25 K | 0.0002
in tetrachloroethylene, 298.45 K | 0.0003
in tetrachloroethylene, 301.95 K | 0.0005
in tetrachloroethylene, 303.25 K | 0.0008
in tetrachloroethylene, 309.75 K | 0.0028
in trichloroethylene, 296.25 K | 0.0089
in trichloroethylene, 301.35 K | 0.0177
in trichloroethylene, 306.45 K | 0.0406
in trichloroethylene, 310.85 K | 0.0804
in trichloroethylene, 311.25 K | 0.252

CCCCCCCCCCCCCCCCCCCC(=O)OCCO
Details | solubility (mole fraction)
in 1,1,1-trichloroethane, 296.75 K | 0.0241
in 1,1,1-trichloroethane, 299.75 K | 0.0469
in 1,1,1-trichloroethane, 303.75 K | 0.0762
in 1,1,1-trichloroethane, 309.55 K | 0.142
in MIBK, 294.65 K | 0.0026
in MIBK, 298.05 K | 0.0049
in MIBK, 299.25 K | 0.008
in MIBK, 302.65 K | 0.0176
in MIBK, 307.55 K | 0.0486
in MIBK, 311.75 K | 0.173
in cyclohexane, 296.35 K | 0.003
in cyclohexane, 298.75 K | 0.0044
in cyclohexane, 301.55 K | 0.008
in cyclohexane, 303.25 K | 0.0189
in cyclohexane, 305.65 K | 0.0367
in cyclohexane, 307.25 K | 0.069
in cyclohexane, 310.55 K | 0.122
in ethanol, 311.25 K | 0.0006
in ethanol, 314.65 K | 0.0012
in ethanol, 319.15 K | 0.002
in ethanol, 322.15 K | 0.005
in ethanol, 324.15 K | 0.0139
in isopropanol, 302.85 K | 0.0002
in isopropanol, 304.05 K | 0.0005
in isopropanol, 306.35 K | 0.0008
in isopropanol, 309.85 K | 0.001
in isopropanol, 310.65 K | 0.0017
in isopropanol, 310.95 K | 0.0026
in isopropanol, 313.15 K | 0.0028
in isopropanol, 316.15 K | 0.0062
in isopropanol, 318.15 K | 0.0134
in isopropanol, 319.85 K | 0.082
in isopropanol, 319.95 K | 0.193
in n-butanol, 303.75 K | 0.0006
in n-butanol, 303.95 K | 0.001
in n-butanol, 306.55 K | 0.0018
in n-butanol, 306.75 K | 0.0019
in n-butanol, 307.95 K | 0.0027
in n-butanol, 308.85 K | 0.0039
in n-butanol, 310.85 K | 0.0059
in n-butanol, 313.75 K | 0.0122
in n-butanol, 315.75 K | 0.0201
in n-butanol, 317.35 K | 0.0783
in n-butanol, 317.45 K | 0.151
in n-butyl acetate, 294.75 K | 0.0036
in n-butyl acetate, 296.55 K | 0.0065
in n-butyl acetate, 297.45 K | 0.009
in n-butyl acetate, 299.85 K | 0.0127
in n-butyl acetate, 301.05 K | 0.0184
in n-butyl acetate, 303.45 K | 0.0288
in n-butyl acetate, 307.35 K | 0.0655
in n-butyl acetate, 312.35 K | 0.147
in n-butyl acetate, 312.85 K | 0.172
in n-butyl acetate, 313.35 K | 0.185
in trichloroethylene, 297 K | 0.0428
in trichloroethylene, 299.25 K | 0.0575
in trichloroethylene, 304.25 K | 0.104
in trichloroethylene, 307.7 K | 0.15
in trichloroethylene, 311.3 K | 0.216

CCCCCCCCCCCCCCCCCC(=O)OCCO
Details | solubility (mole fraction)
in 1,1,1-trichloroethane, 287.65 K | 0.0097
in 1,1,1-trichloroethane, 290.45 K | 0.0147
in 1,1,1-trichloroethane, 293.65 K | 0.0227
in 1,1,1-trichloroethane, 295.75 K | 0.0339
in 1,1,1-trichloroethane, 298.55 K | 0.0504
in 1,1,1-trichloroethane, 300.95 K | 0.0723
in 1,1,1-trichloroethane, 304.25 K | 0.108
in 1,1,1-trichloroethane, 307.75 K | 0.164
in 1,1,1-trichloroethane, 311.65 K | 0.239
in 1,1,1-trichloroethane, 314.45 K | 0.348
in 1,1,2-trichlorotrifluoroethane, 290.45 K | 0.0013
in 1,1,2-trichlorotrifluoroethane, 295.55 K | 0.0029
in 1,1,2-trichlorotrifluoroethane, 303.45 K | 0.0077
in 1,1,2-trichlorotrifluoroethane, 303.65 K | 0.0087
in 1,1,2-trichlorotrifluoroethane, 306.05 K | 0.0124
in 1,1,2-trichlorotrifluoroethane, 308.05 K | 0.0192
in 1,1,2-trichlorotrifluoroethane, 309.85 K | 0.0307
in 1,1,2-trichlorotrifluoroethane, 311.45 K | 0.049
in 1,1,2-trichlorotrifluoroethane, 312.65 K | 0.0769
in 1,1,2-trichlorotrifluoroethane, 314.15 K | 0.128
in 1,1,2-trichlorotrifluoroethane, 316.75 K | 0.276
in cyclohexane, 282.05 K | 0.0007
in cyclohexane, 288.35 K | 0.0015
in cyclohexane, 294.65 K | 0.0033
in cyclohexane, 298.15 K | 0.0067
in cyclohexane, 299.15 K | 0.0088
in cyclohexane, 300.25 K | 0.0128
in cyclohexane, 300.85 K | 0.0135
in cyclohexane, 302.25 K | 0.0199
in cyclohexane, 303.85 K | 0.314
in cyclohexane, 305.45 K | 0.0499
in cyclohexane, 307.15 K | 0.0774
in cyclohexane, 309.35 K | 0.129
in cyclohexane, 312.46 K | 0.208
in cyclohexane, 315.56 K | 0.303
in ethyl acetate, 297.45 K | 0.0118
in ethyl acetate, 298.35 K | 0.016
in ethyl acetate, 299.15 K | 0.0204
in ethyl acetate, 299.75 K | 0.0248
in ethyl acetate, 300.95 K | 0.0332
in ethyl acetate, 302.15 K | 0.0433
in ethyl acetate, 305.05 K | 0.065
in ethyl acetate, 306.05 K | 0.0868
in ethyl acetate, 308.75 K | 0.125
in ethyl acetate, 312.75 K | 0.233
in n-butyl acetate, 294.45 K | 0.0094
in n-butyl acetate, 295.35 K | 0.0174
in n-butyl acetate, 297.45 K | 0.0304
in n-butyl acetate, 298.65 K | 0.0507
in n-butyl acetate, 302.65 K | 0.0761
in n-butyl acetate, 306.75 K | 0.129
in n-butyl acetate, 313.15 K | 0.267
in n-hexyl acetate, 293.95 K | 0.0267
in n-hexyl acetate, 299.35 K | 0.0423
in n-hexyl acetate, 302.35 K | 0.0633
in n-hexyl acetate, 305.95 K | 0.0919
in n-hexyl acetate, 308.15 K | 0.128
in n-hexyl acetate, 309.75 K | 0.158
in n-hexyl acetate, 311.65 K | 0.202
in n-hexyl acetate, 313.73 K | 0.256
in n-hexyl acetate, 317.15 K | 0.339
in n-hexyl acetate, 320.05 K | 0.464
in n-hexyl acetate, 332.85 K | 0.631
in n-pentyl acetate, 294.95 K | 0.0324
in n-pentyl acetate, 298.95 K | 0.0453
in n-pentyl acetate, 300.85 K | 0.168
in n-pentyl acetate, 301.75 K | 0.0655
in n-pentyl acetate, 303.75 K | 0.0897
in n-pentyl acetate, 305.75 K | 0.121
in n-pentyl acetate, 311.95 K | 0.232
in n-pentyl acetate, 314.95 K | 0.316
in n-pentyl acetate, 318.45 K | 0.447
in n-pentyl acetate, 322.85 K | 0.657
in n-propyl acetate, 297.75 K | 0.0357
in n-propyl acetate, 299.95 K | 0.0493
in n-propyl acetate, 302.15 K | 0.0655
in n-propyl acetate, 304.35 K | 0.0992
in n-propyl acetate, 306.45 K | 0.137
in n-propyl acetate, 308.75 K | 0.174
in n-propyl acetate, 311.85 K | 0.228
in n-propyl acetate, 314.95 K | 0.315
in n-propyl acetate, 317.85 K | 0.405
in n-propyl acetate, 322.15 K | 0.566
